The values that follow come from publication PMC12037037 (Proceedings of the National Academy of Sciences of the …, 2025).

The target of one data set is 5-HT5A (Homo sapiens, UniProt P47898). Description: Functional assay at 5-HT5A (Fig. S4). In kind it is cell-based. From the text:
Figure S4. […] Radioligand binding (RLB) (top) and IP1 functional assays (bottom) for 5-HT1A (A), 5-HT5a (B), 5-HT6 (C), and 5-HT7 (D) receptors. Agonist or antagonist mode is indicated in the title of each graph. Data represent the mean ± SEM of 2 technical replicates.
5-carboxamidotryptamine; ND = not determined for incomplete curves.
(§1) (1 picture or pasted object on this page, not shown here)

A short description of data set [1]: ADME assays (Eurofins, ChemPartner). Conditions: overall statement. In kind it is in vitro ADME. The procedure: as §1
Comparison Between WT and S242A5.46 psychLight Variants. Activity in WT and S242A5.46 mutant forms of PsychLight was quantified by deriving ligand activity ratios (log(Emax/EC50)). […]
and (+)-JRT were fit to a log(agonist) vs. response (three parameters) curve. The Emax/EC50 analysis was performed as previously described in detail by others (16):
Response = Basal + E!"# − Basal where Emax and Basal represent the top and bottom asymptotes of the curve fit, respectively; EC50 represents the concentration that gives a response halfway between Emax and Basal; and Log[A] is the logarithm of the agonist concentration. Then, ligand activity ratios, log(Emax/EC50) were calculated for each test ligand and statistical comparisons made between each other and between genotypes using a two-way ANOVA and significant interaction effects followed by a Šídák's multiple comparisons test.
ADME and hERG Inhbition Assays. […]
Briefly, 96 well plates were coated with poly-D-lysine and approximately 15,000 cells/well. […] Images were analyzed using the Simple Neurite Tracer and Sholl analysis plug-ins for ImageJ Fiji (version 1.51N). […] All images were taken and analyzed by an experimenter blinded to treatment conditions.
Spinogenesis Assays Using Cultured Rat Cortical Neurons. […] Images were analyzed using ImageJ Fiji (version 1.51N). […]

The target in data set [2] is T1, 5-HT2A receptors (Gq activation) (Homo sapiens, UniProt P28223).
T1 construct: expressed in transfected cells; host or cells: HEK293T (transient)
T1 sequence (P28223 whole entry): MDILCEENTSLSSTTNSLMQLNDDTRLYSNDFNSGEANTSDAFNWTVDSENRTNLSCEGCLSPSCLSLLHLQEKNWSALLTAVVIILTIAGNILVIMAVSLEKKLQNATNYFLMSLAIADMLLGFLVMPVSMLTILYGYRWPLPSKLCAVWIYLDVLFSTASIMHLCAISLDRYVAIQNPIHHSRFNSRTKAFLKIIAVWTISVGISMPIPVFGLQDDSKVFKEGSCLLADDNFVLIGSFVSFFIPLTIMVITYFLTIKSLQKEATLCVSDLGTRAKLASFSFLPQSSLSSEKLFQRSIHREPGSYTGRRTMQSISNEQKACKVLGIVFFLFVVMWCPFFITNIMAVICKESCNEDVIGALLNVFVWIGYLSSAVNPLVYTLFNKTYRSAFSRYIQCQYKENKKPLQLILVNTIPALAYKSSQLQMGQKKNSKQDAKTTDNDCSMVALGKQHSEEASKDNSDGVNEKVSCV
Description: BRET-based assay of Gq activation. It is filed as cell-based.
Description: IP1 Assay (5-HT2AR and 5-HT2CR). The 5-HT2AR and 5-HT2CR IPOne HTRF assays were performed at Epics
Therapeutics S.A. (Belgium, FAST-0505I) using conventional methods. Experiments were performed using the free bases
of (+)-JRT and (–)-JRT. Briefly, CHO-K1 cells expressing human recombinant 5-HT2AR grown to mid-log phase in culture
media without antibiotics were detached with PBS-EDTA, centrifuged, and resuspended in medium without antibiotics
buffer. Then, 20,000 cells were distributed in a 96-well plate and incubated overnight at 37 °C with 5% CO2. For agonist
were added to each well. The plate was incubated for 60 min at 37 °C with 5% CO2. After addition of the lysis buffer containing
IP1-d2 and anti-IP1 cryptate detection reagents, plates were incubated for 1 h at room temperature and fluorescence ratios
were measured according to the manufacturer’s specifications using the HTRF kit.
IP1 Assay (5-HT2BR). The 5-HT2BR IP1 assays were performed at Eurofins Cerep SA (Celle l’Evescault, France) using
conventional methods (Catalog #3344) as described previously.14 Experiments were performed using the free bases of (+)-
JRT and (–)-JRT. Briefly, CHO cells transfected with the human 5-HT2B receptor were suspended in a buffer containing
10 mM Hepes/NaOH (pH 7.4), 4.2 mM KCl, 146 mM NaCl, 1 mM CaCl2, 0.5 mM MgCl2, 5.5 mM glucose and 50 mM LiCl.
Then the cells were distributed in microplates at a density of ~2.104 cells/well and incubated for 30 min at 37°C in the
presence of buffer (basal control), test compound, or reference agonist. For stimulated control measurement, separate
Following incubation, the cells are lysed and the fluorescence acceptor (D2-
labeled IP1) and fluorescence donor (anti-IP1 antibody labeled with europium cryptate) were added. After 60 min at room
temperature, the fluorescence transfer was measured at lex = 337 nm and lem = 620 and 665 nm using a microplate
reader (Envision, Perkin Elmer). The IP1 concentration was determined by dividing the signal measured at 665 nm by that
measured at 620 nm (ratio).
BRET-Based GPCR Assays. […]

Sequence of 5-HT5A (P47898 whole entry): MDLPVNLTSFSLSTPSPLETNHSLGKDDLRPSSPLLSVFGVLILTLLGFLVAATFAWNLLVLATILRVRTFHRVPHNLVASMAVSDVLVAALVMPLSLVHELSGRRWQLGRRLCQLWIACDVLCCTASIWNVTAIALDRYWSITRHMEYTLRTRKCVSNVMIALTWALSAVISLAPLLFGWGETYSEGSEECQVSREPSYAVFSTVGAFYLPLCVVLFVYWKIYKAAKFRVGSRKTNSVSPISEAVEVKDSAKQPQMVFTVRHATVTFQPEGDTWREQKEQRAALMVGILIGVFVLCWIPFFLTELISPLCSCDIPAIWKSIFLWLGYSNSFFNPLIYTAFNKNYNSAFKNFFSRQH

Take `CCN(CC)C(=O)[C@@H]1C=C2c3cccc4ccn(c34)C[C@H]2N(C)C1` [(+)-JRT]: the “Functional activity at 5-HT5A” value at 5-HT5A was “antagonist”. The ADME properties result in data set [1] was “excellent”. The EC50 in data set [2] (Gq Activation: EC50, agonist mode) turned out to be 0.4 nM; in data set [2] (Gq Activation: EC50, antagonist mode, cotreated with 10 μM serotonin (5-HT + compound)), 931 nM. In data set [2] (read-out: Gq Activation: EMax), the Emax came out at 33%.

In general, EC50 refers to the concentration needed to bring the measured effect to its halfway point. The Emax is the size of the effect at its maximum, as opposed to the concentration needed.
